Measured values from BigSolDB 2.1.

CC1(C)[C@@H](O)CC[C@]2(C)[C@H]3C(=O)C=C4[C@@H]5C[C@@](C)(C(=O)O)CC[C@]5(C)CC[C@@]4(C)[C@]3(C)CC[C@@H]12
solubility (mole fraction)
Details | 278.15 K | 283.15 K | 288.15 K | 293.15 K | 298.15 K | 303.15 K | 308.15 K | 313.15 K | 318.15 K | 323.15 K
in 1,4-dioxane | – | – | 0.0277 | 0.0286 | 0.0298 | 0.031 | 0.0323 | 0.0335 | 0.0348 | 0.0366
in DMF | 0.0449 | 0.0478 | 0.051 | 0.0545 | 0.058 | 0.0615 | 0.0654 | 0.0692 | 0.0733 | 0.0777
in ethanol | 0.0109 | 0.0115 | 0.0121 | 0.0128 | 0.0134 | 0.0141 | 0.0147 | 0.0155 | 0.0163 | 0.0172
in isopropanol | 0.00911 | 0.00991 | 0.0108 | 0.0116 | 0.0124 | 0.0133 | 0.0142 | 0.0151 | 0.016 | 0.017
in water | 8.02e-08 | 9.91e-08 | 1.22e-07 | 1.5e-07 | 1.82e-07 | 2.2e-07 | 2.61e-07 | 3.17e-07 | 3.76e-07 | 4.49e-07
